“Also recorded” adds a separate entry of the source. Ends that are not written are not given here.
Columns and labels:
[1] = test system: muscle atrophy animal model (dexamethasone); experiment: Body weight of dexamethasone-treated mice given sitagliptin or GLP-1(32-36)amide (Example 3-1); format: in vivo, C57BL/6J male mice; details: dexamethasone 20 mg/kg i.p.; sitagliptin 300 mg/kg oral gavage, GLP-1(32-36)amide 5 μg/kg i.p.; FIG. 6
Experimental: (§1) The present inventors treated C57BL/6J male mice (n=10/group) with dexamethasone (20 mg/kg/i.p.) to reduce muscles of the mice, and they examined effects of sitagliptin (300 mg/kg/oral gavage) and GLP-1(32-36)amide (5 μg/kg/i.p.) on the body weights and muscles of the mice.

[2] = test system: muscle atrophy animal model (dexamethasone); experiment: Muscle mass of dexamethasone-treated mice given sitagliptin or GLP-1(32-36)amide (Example 3-1); format: in vivo, C57BL/6J male mice; details: dexamethasone 20 mg/kg i.p.; sitagliptin 300 mg/kg oral gavage, GLP-1(32-36)amide 5 μg/kg i.p.; FIG. 7
Experimental: as §1

[3] = test system: muscle atrophy animal model (dexamethasone); experiment: Grip strength of dexamethasone-treated mice given sitagliptin or GLP-1(32-36)amide (Example 3-2); format: in vivo, C57BL/6J male mice; details: dexamethasone 20 mg/kg i.p.; sitagliptin 300 mg/kg oral gavage, GLP-1(32-36)amide 5 μg/kg i.p.; FIG. 8
Experimental: as §1, with “mice. In detail, the grip strength when all of the paws of the mouse of Example 6 were pulled with the same force was measured by a grip strength machine.” for “mice.”

[4] = test system: myostatin and MyoD; experiment: Myostatin and MyoD expression in dexamethasone-treated mice given sitagliptin or GLP-1(32-36)amide (Example 3-3); format: in vivo, C57BL/6J male mice; details: dexamethasone 20 mg/kg i.p.; sitagliptin 300 mg/kg oral gavage, GLP-1(32-36)amide 5 μg/kg i.p.; FIG. 9
Experimental: as §1, with “mice. Therefore, the present inventors examined a change in the expression level of myostatin, which is a cause of muscle atrophy, and a change in the expression level of the muscle-producing factor MyoD by sitagliptin and GLP-1(32-36)amide.” for “mice.”

[5] = test system: dexamethasone-induced muscle atrophy or sarcopenia mice; experiment: Grip strength of dexamethasone-treated mice given long-acting GLP-1(7-36) (Example 2-2); format: in vivo, male C57BL6J mice; details: dexamethasone 20 mg/kg i.p., Trulicity 1 mg/kg s.c. two times per week, PB1023 3 mg/kg s.c. three times per week, after two weeks, FIGS. 11A and 11B
Experimental: (§2) Specifically, 10-week-old male C57BL6J mice were divided into 10 mice per group (total n=40), and saline and dexamethasone (20 mg/kg) were each intraperitoneally administered to the control and experimental groups each day. The grip strength of the mice was measured on day 9.
(§3) Subsequently, on day 11, the control mice were administered with saline three times per week by subcutaneous injection (Co-vehicle group), whereas the comparative mice were administered with either (i) saline three times per week by subcutaneous injection (Dex-vehicle group), (ii) Trulicity (SEQ ID NO: 5) two times per week by subcutaneous injection (1 mg/kg; Trulicity group), or (iii) PB1023 three times per week by subcutaneous injection (3 mg/kg; PB1023 group).
(§4) Thereafter, the grip strength was measured and a four limb hanging test was performed on day 14, and tissue sampling was performed on day 22.

[6] = test system: dexamethasone-induced muscle atrophy or sarcopenia mice; experiment: Muscle mass of dexamethasone-treated mice given long-acting GLP-1(7-36) (Example 2-3); format: in vivo, male C57BL6J mice; details: dexamethasone 20 mg/kg i.p., Trulicity 1 mg/kg, PB1023 3 mg/kg s.c.; for total muscle mass: after three weeks, vs Dex-vehicle group, FIG. 12A
Experimental: as §2, §3, §4

[7] = test system: muscle atrophy-induced mice (dexamethasone); experiment: Body weight of dexamethasone-induced muscle atrophy mice treated with exendin-4 (Example 1-1); format: in vivo, C57BL/6J male mice; details: exendin-4 100 ng/mouse i.p. 12 days following dexamethasone 200 mg/kg i.p. 8 days; vs dexamethasone alone; from day 11; FIG. 1
Experimental: It is known that muscle atrophy is caused by chronic diseases (chronic renal failure, chronic heart failure, chronic obstructive disease, etc.), and caused by administration of a high dose of a drug such as dexamethasone. Thus, animal models (C57BL/6J male mice) were treated with dexamethasone to prepare sarcopenia models. When sarcopenia occurred, effects of exendin-4 were investigated.
(§5) In detail, control mice which were not administered with dexamethasone or exendin-4, mice in which muscle atrophy was induced by intraperitoneal injection of dexamethasone (200 mg/kg) for 8 days, comparative mice which were intraperitoneally injected with exendin-4 (100 ng/mouse) for 12 days, and mice in which muscle atrophy was treated by intraperitoneal injection of exendin-4 (100 ng/mouse) for 12 days following intraperitoneal injection of dexamethasone (200 mg/kg) for 8 days were prepared. While these mice were raised for 20 days, changes in their body weights were measured (FIG. 1).

[8] = test system: muscle atrophy-induced mice (dexamethasone); experiment: Skeletal muscle weights of muscle atrophy-induced mice treated with exendin-4 (Example 1-2); format: in vivo, C57BL/6J male mice; details: exendin-4 100 ng/mouse i.p. 12 days following dexamethasone 200 mg/kg i.p. 8 days; FIG. 2
Experimental: as §5
The control mice (control), dexamethasone-induced muscle atrophy mice, exendin-4-treated comparative mice, and muscle atrophy-treated mice treated with exendin-4 following treatment of dexamethasone, which were prepared in Example 1-1, were sacrificed, and total weights of the skeletal muscles of the respective mice were measured. Quadratus muscles, gastrocnemus muscles, tibialis anterior muscles, soleus muscles, and extensor digitorum longus muscles constituting the skeletal muscles were each separated, and their weights were compared (FIG. 2).

[9] = test system: muscle atrophy-induced mice (dexamethasone); experiment: Grip strength of muscle atrophy-induced mice treated with exendin-4 (Example 1-3); format: in vivo, C57BL/6J male mice; details: exendin-4 100 ng/mouse i.p. 12 days following dexamethasone 200 mg/kg i.p. 8 days; FIG. 3
Experimental: as §5
The control mice (control), dexamethasone-induced muscle atrophy mice, exendin-4-treated comparative mice, and muscle atrophy-treated mice treated with exendin-4 following treatment of dexamethasone, which were prepared in Example 1-1, were subjected to measurement of grip strength to investigate whether muscle functions were recovered (FIG. 3). In this regard, a force measured by a grip strength machine when all of the paws of a mouse were pulled with the same force was considered as the grip strength.

[10] = test system: myostatin, atrogin-1, MuRF1, MyoD and myogenin genes; experiment: Expression of muscle protein-destroying and -producing genes in muscle tissue, PCR (Example 1-4); format: in vivo, C57BL/6J male mice; details: exendin-4 following dexamethasone, FIG. 4
Experimental: as §5
It is known that when muscle atrophy occurs, expression of muscle protein-destroying genes (myostatin, atrogin-1, and MuRF1) is increased and expression of muscle protein-producing genes (MyoD and myogenin) is decreased; thus, this was to be examined That is, muscle tissues were removed from the control mice (control), dexamethasone-induced muscle atrophy mice, exendin-4-treated comparative mice, and muscle atrophy-treated mice treated with exendin-4 following treatment of dexamethasone, which were prepared in Example 1-1, and total RNAs were obtained from the muscle tissues. cDNAs were synthesized therefrom, each gene was amplified from the synthesized cDNA by PCR, and changes in the expression levels thereof were compared (FIG. 4).

[11] = test system: myostatin, atrogin-1, and MuRF1 in C2C12 myocytes; experiment: Expression of muscle atrophy-related genes in dexamethasone-treated C2C12 myocytes (Example 1-5); format: cell-based; details: 20 nM exendin-4 6 hours following 1 μM dexamethasone 12 hours, FIG. 5
Experimental: A myoblast cell line C2C12 was differentiated into myocytes by culturing in a medium containing 2% (v/v) horse serum for 5 days. Control myocytes (control) prepared from the differentiated myocytes without any treatment, myocytes in which muscle atrophy symptoms were induced by treatment of 1 μM dexamethasone for 12 hours, comparative myocytes treated with 20 nM exendin-4 for 6 hours, and experimental myocytes in which muscle atrophy symptoms were treated with 20 nM exendin-4 for 6 hours following treatment of 1 μM dexamethasone for 12 hours were each prepared. Expression levels of muscle atrophy-related genes (myostatin, atrogin-1, and MuRF1) were compared in each of the myocytes (FIG. 5).

N[C@@H](CC(=O)N1CCn2c(nnc2C(F)(F)F)C1)Cc1cc(F)c(F)cc1F [sitagliptin]
body weight [1]: increased | muscle mass [2]: increased | grip strength [3]: increased again | MyoD expression [4]: increased again | myostatin expression [4]: decreased again

GLP-1(32-36)amide (LVKGR-NH2)
body weight [1]: increased | muscle mass [2]: increased | grip strength [3]: increased again | MyoD expression [4]: increased again | myostatin expression [4]: decreased again

dulaglutide [Trulicity]
grip strength [5]: improved to a significant level | grip strength ([5]; listed as dulaglutide): enhanced | muscle mass of EDL (Extensor digitorum longus) and QD (Quadratus) ([6]; B to F of FIG. 12): statistical significance was confirmed by an increase in muscle mass | muscle mass of TA (Tibialis anterior), Sol (Soleus), and GA (Gastrocnemius) ([6]; B to F of FIG. 12): tendency of increasing muscle mass | total muscle mass [6]: significantly increased compared to the Dex-vehicle group | total muscle mass ([6]; listed as dulaglutide): muscle mass was increased

exendin-4
body weight [7]: increase in the body weight was observed; also recorded: reduced body weight was restored | skeletal muscle mass (all kinds of skeletal muscles) [8]: increased muscle mass similar to that of the control or comparative group; also recorded: reduced skeletal muscle mass was restored | grip strength [9]: remarkably higher level of grip strength than the muscle atrophy-induced mice; also recorded: reduced grip strength was restored | relative expression levels of muscle protein-destroying genes (myostatin, atrogin-1, and MuRF1) [10]: lowest relative expression levels; also recorded: decreased | relative expression levels of muscle protein-producing genes (MyoD and myogenin) [10]: highest relative expression levels; also recorded: increased | expression levels of muscle atrophy-related genes (myostatin, atrogin-1, and MuRF1) [11]: remarkably decreased expression levels
